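Five compound concentrations were applied to cells in 96-well plates for 48 hours; endpoints were derived by simple linear interpolation of the resulting dose-response curve. Here, GI50 denotes the concentration required for 50% inhibition of growth.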 The source made the active and inactive calls. Rule as the data show it: active = GI50 up to about 1.1 µM and inactive = higher.
What was measured:
Experiment in all cases: NCI-60 cell line screen, 48 h
[1] = system: SK-OV-3
[2] = system: MDA-N
[3] = system: TK-10
[4] = system: 786-0
[5] = system: ACHN
[6] = system: HL-60
[7] = system: NCI-H226
[8] = system: OVCAR-5
[9] = system: UACC-257
[10] = system: SN12C
[11] = system: MOLT-4
[12] = system: HCC 2998
[13] = system: SF-539
[14] = system: NCI-H23
[15] = system: NCI-H460
[16] = system: CAKI-1
[17] = system: NCI-H522
[18] = system: COLO 205
[19] = system: BT-549
[20] = system: Hs-578T

Measured: GI50

COC(=O)[C@@H]1Cc2cc(O)c(O)cc2C2(CCN(C)CC2)O1
inactive: [1] > 10 µM | [2] > 10 µM | [3] > 10 µM | [4] > 10 µM | [5] > 10 µM | [6] > 10 µM | [7] > 10 µM | [8] > 10 µM | [9] > 10 µM | [10] > 10 µM | [11] > 10 µM | [12] > 10 µM | [13] > 10 µM | [14] > 10 µM | [15] > 10 µM | [16] > 10 µM | [17] > 10 µM | [18] > 10 µM | [19] > 10 µM | [20] > 10 µM

CC(=O)OC[C@H]1On2nnnc2[C@H](OC(C)=O)[C@@H](OC(C)=O)[C@@H]1OC(C)=O
inactive: [1] > 100 µM | [2] > 100 µM | [3] 31 µM | [4] > 100 µM | [5] > 100 µM | [6] > 100 µM | [7] > 100 µM | [8] > 100 µM | [9] > 100 µM | [10] > 100 µM | [11] > 100 µM | [12] > 100 µM | [13] > 100 µM | [14] > 100 µM | [15] > 100 µM | [16] > 100 µM | [17] > 100 µM | [18] > 100 µM | [19] > 100 µM | [20] > 100 µM

C=CC(Cl)(CBr)CCC(Br)C(C)(C)Cl (stereo not drawn)
inactive: [1] 41.9 µM | [2] 17.7 µM | [3] 23.2 µM | [4] 11.7 µM | [5] 16.5 µM | [6] 4.05 µM | [7] > 100 µM | [8] 17.3 µM | [9] 14.3 µM | [10] 21.3 µM | [11] 3.23 µM | [12] 14.8 µM | [13] 16.9 µM | [14] 17 µM | [15] 14.8 µM | [17] 10.6 µM | [18] 15.9 µM | [19] 21.4 µM | [20] 35.4 µM

COc1cc(-c2oc3ccccc3c(=O)c2O)cc(OC)c1OC
inactive: [1] 43.4 µM | [2] > 26.1 µM | [3] 29 µM | [4] 9.75 µM | [5] 6.9 µM | [6] 7.08 µM | [8] > 100 µM | [9] > 69.3 µM | [10] > 100 µM | [11] 4.72 µM | [12] > 100 µM | [13] 26.3 µM | [14] 61 µM | [15] 4.19 µM | [16] 26.2 µM | [17] 11.4 µM | [18] 73.3 µM | [19] > 55.2 µM | [20] 8.22 µM

CCOc1cccc(/C=N\c2ccccc2SSc2ccccc2/N=C\c2cccc(OCC)c2O)c1O
inactive: [1] 23.2 µM | [2] 14.2 µM | [3] 29 µM | [4] 7.6 µM | [5] 13.5 µM | [6] 3.7 µM | [7] 6.41 µM | [8] 4.56 µM | [9] 5.77 µM | [10] 9.79 µM | [11] 3.38 µM | [12] 17.2 µM | [13] 26.5 µM | [14] 5.08 µM | [15] 5.48 µM | [16] 9.95 µM | [17] 2.95 µM | [18] 3.02 µM | [19] 1.58 µM | [20] 16.9 µM

COc1cc2c(cc1OC)C13CCN4CC5=CCOC6CC(=O)N2C1C6C5CC43O (stereo not drawn)
inactive: [1] > 100 µM | [2] > 100 µM | [3] > 100 µM | [4] > 100 µM | [5] > 100 µM | [6] > 100 µM | [7] > 100 µM | [8] > 100 µM | [9] > 100 µM | [10] > 100 µM | [11] > 100 µM | [12] > 100 µM | [13] > 100 µM | [14] > 100 µM | [15] > 100 µM | [16] > 100 µM | [17] > 100 µM | [18] > 100 µM | [19] > 100 µM | [20] > 100 µM

O=c1c(C(c2cccnc2)c2c(O)oc3cc(O)ccc3c2=O)c(O)oc2cc(O)ccc12
inactive: [1] > 100 µM | [2] > 100 µM | [3] > 100 µM | [4] > 100 µM | [5] > 100 µM | [6] > 100 µM | [7] > 100 µM | [8] > 100 µM | [9] > 100 µM | [10] > 100 µM | [11] > 100 µM | [12] > 100 µM | [13] > 100 µM | [14] > 100 µM | [15] > 100 µM | [16] > 100 µM | [17] > 100 µM | [18] > 100 µM | [19] > 100 µM | [20] > 100 µM

Source: ChEMBL document CHEMBL1201862, “PubChem BioAssay data set” (2004)
